Values joined by “and” are separate entries in the source; they are usually repeats but may differ in a detail not shown here. Equal values may be shown once.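 Five concentrations, 48 hours, 96-well plates. GI50 = concentration required for 50% inhibition of growth. Definition used: TGI = concentration required for complete inhibition of growth.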
Experiments:
Test in all cases: NCI tumour cell line growth inhibition, 48 h
TK-10 renal = test system: TK-10 renal
HOP-92 NSCLC = test system: HOP-92 NSCLC
SW-620 colon = test system: SW-620 colon
LOX IMVI melanoma = test system: LOX IMVI melanoma
SK-MEL-2 melanoma = test system: SK-MEL-2 melanoma
SK-MEL-5 melanoma = test system: SK-MEL-5 melanoma
RPMI-8226 leukemia = test system: RPMI-8226 leukemia
HS 578T breast = test system: HS 578T breast
SNB-75 CNS = test system: SNB-75 CNS
MCF7 breast = test system: MCF7 breast
BT-549 breast = test system: BT-549 breast
SK-OV-3 ovarian = test system: SK-OV-3 ovarian
SNB-19 CNS = test system: SNB-19 CNS
DU-145 prostate = test system: DU-145 prostate
ACHN renal = test system: ACHN renal
U251 CNS = test system: U251 CNS
OVCAR-5 ovarian = test system: OVCAR-5 ovarian
A498 renal = test system: A498 renal
EKVX NSCLC = test system: EKVX NSCLC
HOP-62 NSCLC = test system: HOP-62 NSCLC
SK-MEL-28 melanoma = test system: SK-MEL-28 melanoma
MALME-3M melanoma = test system: MALME-3M melanoma
MDA-MB-435 = test system: MDA-MB-435
UO-31 renal = test system: UO-31 renal
T-47D breast = test system: T-47D breast
PC-3 prostate = test system: PC-3 prostate
UACC-62 melanoma = test system: UACC-62 melanoma
HCT-116 colon = test system: HCT-116 colon
HCT-15 colon = test system: HCT-15 colon
786-0 renal = test system: 786-0 renal
SF-268 CNS = test system: SF-268 CNS
NCI-H226 lung = test system: NCI-H226 lung
SF-539 CNS = test system: SF-539 CNS
IGROV1 ovarian = test system: IGROV1 ovarian
MDA-MB-231 breast = test system: MDA-MB-231 breast
HL-60(TB) leukemia = test system: HL-60(TB) leukemia
SN12C renal = test system: SN12C renal
NCI/ADR-RES ovarian = test system: NCI/ADR-RES ovarian
KM12 colon = test system: KM12 colon
SF-295 CNS = test system: SF-295 CNS
OVCAR-3 ovarian = test system: OVCAR-3 ovarian
K-562 leukemia = test system: K-562 leukemia
RXF 393 renal = test system: RXF 393 renal
MOLT-4 leukemia = test system: MOLT-4 leukemia
UACC-257 melanoma = test system: UACC-257 melanoma
CAKI-1 renal = test system: CAKI-1 renal
OVCAR-8 ovarian = test system: OVCAR-8 ovarian
CCRF-CEM leukemia = test system: CCRF-CEM leukemia
HCC-2998 colon = test system: HCC-2998 colon
NCI-H522 lung = test system: NCI-H522 lung
COLO 205 colon = test system: COLO 205 colon
OVCAR-4 ovarian = test system: OVCAR-4 ovarian
HT29 colon = test system: HT29 colon
NCI-H23 lung = test system: NCI-H23 lung
M14 melanoma = test system: M14 melanoma
A549 NSCLC = test system: A549 NSCLC
NCI-H460 lung = test system: NCI-H460 lung

O=c1cc(-c2ccccc2)[nH]c2ccc(N3CCCC3)cc12
TGI (TK-10 renal): > 100000 nM
TGI (HOP-92 NSCLC): > 100000 nM
TGI (SW-620 colon): > 100000 nM
TGI (LOX IMVI melanoma): > 100000 nM
TGI (SK-MEL-2 melanoma): > 100000 nM
TGI (SK-MEL-5 melanoma): 2160 nM
TGI (RPMI-8226 leukemia): > 100000 nM
TGI (HS 578T breast): > 100000 nM
TGI (SNB-75 CNS): > 100000 nM
TGI (MCF7 breast): > 100000 nM
TGI (BT-549 breast): > 100000 nM
TGI (SK-OV-3 ovarian): > 100000 nM
TGI (SNB-19 CNS): > 100000 nM
TGI (DU-145 prostate): > 100000 nM
TGI (ACHN renal): > 100000 nM
TGI (U251 CNS): > 46900 nM
TGI (OVCAR-5 ovarian): > 100000 nM
TGI (A498 renal): > 100000 nM
TGI (EKVX NSCLC): > 100000 nM
TGI (HOP-62 NSCLC): > 74200 nM
TGI (SK-MEL-28 melanoma): > 100000 nM
TGI (MALME-3M melanoma): > 100000 nM
TGI (MDA-MB-435): < 11.4 nM
TGI (UO-31 renal): > 100000 nM
TGI (T-47D breast): > 100000 nM
TGI (PC-3 prostate): > 100000 nM
TGI (UACC-62 melanoma): 85200 nM
TGI (HCT-116 colon): > 34800 nM
TGI (HCT-15 colon): > 100000 nM
TGI (786-0 renal): > 52400 nM
TGI (SF-268 CNS): > 100000 nM
TGI (NCI-H226 lung): 76.1 nM
TGI (SF-539 CNS): 70.3 nM
TGI (IGROV1 ovarian): > 100000 nM
TGI (MDA-MB-231 breast): > 100000 nM
TGI (HL-60(TB) leukemia): < 34.7 nM
TGI (SN12C renal): > 100000 nM
TGI (NCI/ADR-RES ovarian): > 100000 nM
TGI (KM12 colon): 198 nM
TGI (SF-295 CNS): 20.1 nM
TGI (OVCAR-3 ovarian): 26100 nM
TGI (K-562 leukemia): > 100000 nM
TGI (RXF 393 renal): > 100000 nM
TGI (MOLT-4 leukemia): > 100000 nM
TGI (UACC-257 melanoma): > 100000 nM
TGI (CAKI-1 renal): > 100000 nM
TGI (OVCAR-8 ovarian): > 57900 nM

C#CC(F)(F)[C@]1(O)CC[C@H]2[C@@H]3CCC4=CC(=O)CCC4=C3[C@@H](c3ccc(C4CC4)cc3)C[C@@]21C
GI50 (CCRF-CEM leukemia): 17 nM and < 10 nM
TGI (CCRF-CEM leukemia): 43 nM and < 13.9 nM
GI50 (TK-10 renal): 4550 nM and 2240 nM
TGI (TK-10 renal): 20900 nM and 8330 nM
GI50 (HOP-92 NSCLC): 16.7 nM and < 16.1 nM
TGI (HOP-92 NSCLC): 37.4 nM and < 25.3 nM
GI50 (SW-620 colon): 1250 nM and 2360 nM
TGI (SW-620 colon): 7440 nM and 12400 nM
GI50 (LOX IMVI melanoma): < 10 nM
TGI (LOX IMVI melanoma): < 10 nM
GI50 (SK-MEL-2 melanoma): 2650 nM and 2220 nM
TGI (SK-MEL-2 melanoma): 7740 nM and 6010 nM
GI50 (SK-MEL-5 melanoma): 4050 nM and 3050 nM
TGI (SK-MEL-5 melanoma): 10700 nM and 8410 nM
GI50 (HCC-2998 colon): 5600 nM and 3720 nM
TGI (HCC-2998 colon): 29900 nM and > 65600 nM
GI50 (RPMI-8226 leukemia): 139 nM and 125 nM
TGI (RPMI-8226 leukemia): 1000 nM and 915 nM
GI50 (HS 578T breast): 205 nM and 1320 nM
TGI (HS 578T breast): 2630 nM and 7340 nM
GI50 (SNB-75 CNS): 147 nM
TGI (SNB-75 CNS): 437 nM
GI50 (MCF7 breast): 1560 nM and 1160 nM
TGI (MCF7 breast): > 100000 nM
GI50 (BT-549 breast): 1160 nM and 1280 nM
TGI (BT-549 breast): 2940 nM and 3570 nM
GI50 (NCI-H522 lung): < 10 nM
TGI (NCI-H522 lung): 17.4 nM and < 10 nM
GI50 (SK-OV-3 ovarian): 162 nM and 69.5 nM
TGI (SK-OV-3 ovarian): 312 nM and 215 nM
GI50 (SNB-19 CNS): 1440 nM and 3910 nM
GI50 (COLO 205 colon): 1790 nM and 1220 nM
TGI (COLO 205 colon): 11200 nM and 3590 nM
GI50 (DU-145 prostate): 814 nM and 2130 nM
TGI (DU-145 prostate): 6550 nM and 15400 nM
GI50 (U251 CNS): 48 nM and 395 nM
TGI (U251 CNS): 234 nM and 2200 nM
GI50 (OVCAR-5 ovarian): 271 nM and 1280 nM
TGI (OVCAR-5 ovarian): 2270 nM and 5790 nM
GI50 (A498 renal): 495 nM and 593 nM
TGI (A498 renal): 1930 nM and 1740 nM
GI50 (HOP-62 NSCLC): 367 nM and 201 nM
TGI (HOP-62 NSCLC): 5440 nM and 1720 nM
GI50 (SK-MEL-28 melanoma): 5330 nM and 2310 nM
TGI (SK-MEL-28 melanoma): 17900 nM and 5960 nM
GI50 (MALME-3M melanoma): 43.6 nM and < 15.1 nM
TGI (MALME-3M melanoma): 94.6 nM and < 28 nM
GI50 (MDA-MB-435): 4590 nM and 2250 nM
TGI (MDA-MB-435): 23900 nM and 10300 nM
GI50 (UO-31 renal): < 10 nM
TGI (UO-31 renal): < 10 nM
GI50 (T-47D breast): < 10 nM
TGI (T-47D breast): 59000 nM and 8400 nM
GI50 (PC-3 prostate): 44.1 nM and 414 nM
TGI (PC-3 prostate): 313 nM and 2740 nM
GI50 (UACC-62 melanoma): 762 nM and 1420 nM
TGI (UACC-62 melanoma): 2360 nM and 4220 nM
GI50 (OVCAR-4 ovarian): 1010 nM
TGI (OVCAR-4 ovarian): > 100000 nM
GI50 (HCT-116 colon): 3190 nM and 2900 nM
TGI (HCT-116 colon): 13200 nM and 19000 nM
GI50 (HCT-15 colon): 1550 nM and 1810 nM
TGI (HCT-15 colon): > 100000 nM
GI50 (HT29 colon): 42.8 nM and < 20 nM
TGI (HT29 colon): 171 nM and 184 nM
GI50 (NCI-H23 lung): 24.2 nM and < 15.1 nM
TGI (NCI-H23 lung): 268 nM and < 41 nM
GI50 (786-0 renal): < 10 nM
TGI (786-0 renal): < 10.6 nM
GI50 (SF-268 CNS): 54.1 nM and 97.1 nM
TGI (SF-268 CNS): 183 nM and 322 nM
GI50 (M14 melanoma): 844 nM and 2780 nM
TGI (M14 melanoma): 2920 nM and 18800 nM
GI50 (NCI-H226 lung): 7790 nM and 3150 nM
TGI (NCI-H226 lung): 72900 nM and 11500 nM
GI50 (SF-539 CNS): 20.7 nM and < 15.5 nM
TGI (SF-539 CNS): 45.8 nM and 31.7 nM
GI50 (A549 NSCLC): 400 nM and 470 nM
TGI (A549 NSCLC): 3910 nM and 7220 nM
GI50 (IGROV1 ovarian): < 11.4 nM
TGI (IGROV1 ovarian): < 15.5 nM
GI50 (HL-60(TB) leukemia): < 10 nM
TGI (HL-60(TB) leukemia): 21.6 nM and < 10 nM
GI50 (SN12C renal): 933 nM and 2450 nM
TGI (SN12C renal): 8690 nM and 10500 nM
GI50 (NCI/ADR-RES ovarian): 83 nM and 164 nM
TGI (NCI/ADR-RES ovarian): 2820 nM and 5550 nM
GI50 (KM12 colon): 21.4 nM and < 17.7 nM
GI50 (SF-295 CNS): 31.9 nM and < 10 nM
TGI (SF-295 CNS): 82.1 nM and < 10 nM
GI50 (NCI-H460 lung): 2380 nM and 2280 nM
TGI (NCI-H460 lung): 9900 nM and 9670 nM
GI50 (OVCAR-3 ovarian): 15.9 nM and 24.5 nM
TGI (OVCAR-3 ovarian): 32.6 nM and 169 nM
GI50 (K-562 leukemia): 815 nM and 2210 nM
TGI (K-562 leukemia): 11700 nM and > 100000 nM
TGI (RXF 393 renal): 2920 nM and 7000 nM
GI50 (MOLT-4 leukemia): 1160 nM and 1620 nM
TGI (MOLT-4 leukemia): 4000 nM and 5000 nM
GI50 (UACC-257 melanoma): 7720 nM and 6450 nM
TGI (UACC-257 melanoma): 71800 nM and > 100000 nM
GI50 (CAKI-1 renal): 103 nM and < 17.1 nM
TGI (CAKI-1 renal): 633 nM and 74.5 nM
